Columns and labels:
[1] = tested on: U251 Glioblastoma cell line; assay: Cytotoxicity assay (MTT, 72 hours, daily administration) in U251; assay type: cell-based; details: Homo sapiens, U-251, read-out: % VIABILITY ± S.D.
Description: (§1) The combinations were effective in other human tumor cell lines and we tested in glioblastoma cell line and endometrial cancer cell Additional tests include data obtained from two independent experiments, six wells for dose.

[2] = tested on: PCEM004a endometrial cancer cell line; assay: Cytotoxicity assay (MTT, 72 hours, daily administration) in PCEM004a; assay type: cell-based; details: Homo sapiens, read-out: % VIABILITY ± S.D.
Description: as §1

[3] = tested on: pancreatic adenocarcinoma associated genes; assay: TaqMan Array gene expression in PANC-1, normalized for GAPDH; details: 24 hs, CBD 3.8, MLT 200, AKBA 7.5 micrograms/ml
Protocol: Total RNA from untreated or CBD, MLT, AKBA alone and in combination treated cell lines was extracted using Rneasy Mini kit (Qiagen, Milan, Italy). One microgram of total RNA from each sample was subjected to reverse transcription in a total volume of 20 μL using the High-Capacity cDNA Archive Kit (Applied Biosystem, Foster City, […], USA) according to the instructions. cDNAs were analyzed by qRT-PCR performed using an IQ5 Multicolor Real time PCR Detection system. Quantitative real-time gene expression was performed with the TaqMan® Array Human Pancreatic Adenocarcinoma 96-well Plate, containing 92 assays to pancreatic adenocarcinoma associated genes and 4 assays to candidate endogenous control genes, was purchased (Thermo Fisher, Grand Island, NY, USA) and used to evaluate the treatments in modulating PDAC-related genes (Table 1). Measurement of different housekeeping genes (GAPDH; HPRT1; GUSB) on the samples was used to normalize mRNA content. The gene expression levels of treated cell lines were expressed as relative fold compared with untreated or vehicle-treated cells.
To elucidate the molecular events induced by CBD, MLT and AKBA alone and in combination, 92 genes involved in PDAC progression and aggressiveness were evaluated by Taqman Array. Both cell lines were treated with CBD, MLT and AKBA alone and in combination, and the molecular pathways of PDAC associated gene were evaluated.
Target mRNA levels were normalized for GAPDH expression.

PANC-1 cell line = assay: Cytotoxicity assay (MTT, 72 hours, daily administration) in PANC-1; details: Homo sapiens, PANC-1, read-out: % VIABILITY ± S.D.
Protocol: Human pancreatic ductal adenocarcinoma (PANC-1 and MIAPaCa-2) cell lines were purchased by Sigma Aldrich (Milan, Italy) and cultured in DMEM high glucose medium (EuroClone, Milan, Italy) supplemented with 10% of fetal bovine serum (FBS), 2 mM L-glutamine, 100 IU/mL penicillin, 100 mg streptomycin and 1 mM sodium pyruvate. Cell lines were maintained at 37° C. with 5% CO2 and 95% of humidity.
3×10^4 cells/mL were seeded in 96-well plates in a final volume of 100 L/well. After one day of incubation, compounds or vehicles, alone or in combination, were added and six replicates were used for each treatment and all experiments were repeated three times. In all the experiments, the treatment was daily added, after washing with fresh medium. After 72 hours cell viability was investigated by adding 0.8 mg/mL of 3-[4,5-dimethylthiazol-2-yl]-2,5 diphenyl tetrazolium bromide (MTT) (Sigma Aldrich) to the media. After 3 h the supernatant was removed, and the pellet of salt crystals was solubilized with 100 μL/well of DMSO. The absorbance of the sample against a background control was measured at 570 nm using an ELISA reader microliter plate (BioTek Instruments, Winooski, VT, USA).
Cytotoxicity in PDAC cell lines: The effect of CBD, MLT and AKBA in reducing cell viability was evaluated at 72 hours, post daily administration, in PDAC cell lines. Cells were treated with different doses of CBD, MLT and AKBA (up to 1 mg) and percentage of cell viability was evaluated by the MTT assay. […] The compounds were administered daily for 72 hours, as in previous experiments at the desired doses. […] MTT assay was used to analyse the cell cytotoxicity.

COc1ccc2[nH]cc(CCNC(C)=O)c2c1 [MLT, N-[2-(5-methoxy-1H-indol-3-yl)ethyl]acetamide]
viability at 100 µg/mL [1]: 100 ± 2.3%
viability at 200 µg/mL [1]: 65.4 ± 4.4%
viability at 400 µg/mL [1]: 58.2 ± 4.1%
viability at 800 µg/mL [1]: 17 ± 1.1%
viability at 100 µg/mL [2]: 96.5 ± 8.2%
viability at 200 µg/mL [2]: 90.4 ± 6.2%
viability at 400 µg/mL [2]: 80.1 ± 5.3%
viability at 800 µg/mL [2]: 31.3 ± 2.8%
AKT3 mRNA relative expression ([3]; VEI 0.00): 0.00
ARHGEF7 mRNA relative expression ([3]; VEI 0.00): 0.017
BCL2 mRNA relative expression ([3]; VEI 0.00): 0.00
CCND2 mRNA relative expression ([3]; VEI 0.00): 0.00
CDKN2B mRNA relative expression ([3]; VEI 0.00): 1.65
CYP2E1 mRNA relative expression ([3]; VEI 0.00): 0.00
EGF mRNA relative expression ([3]; VEI 0.00): 0.00
IGF1 mRNA relative expression ([3]; VEI 0.00): 0.00
IL6 mRNA relative expression ([3]; VEI 0.00): 0.00
KDR mRNA relative expression ([3]; VEI 0.00): 0.00
KIT mRNA relative expression ([3]; VEI 0.00): 0.01
MAPK3 mRNA relative expression ([3]; VEI 0.00): 0.00
MMP1 mRNA relative expression ([3]; VEI 0.00): 0.07
MMP3 mRNA relative expression ([3]; VEI 0.00): 0.00
TGFA mRNA relative expression ([3]; VEI 0.00): 0.22
TGFB2 mRNA relative expression ([3]; VEI 0.00): 0.00
JAK2 mRNA relative expression ([3]; VEI 0.01): 0.01
JAK3 mRNA relative expression ([3]; VEI 0.01): 0.00
MMP7 mRNA relative expression ([3]; VEI 0.01): 0.01
MMP9 mRNA relative expression ([3]; VEI 0.01): 0.04
PK3CA mRNA relative expression ([3]; VEI 0.01): 0.00
RAC2 mRNA relative expression ([3]; VEI 0.01): 0.01
RB1 mRNA relative expression ([3]; VEI 0.01): 0.03
TGFB3 mRNA relative expression ([3]; VEI 0.01): 0.00
TGFBR1 mRNA relative expression ([3]; VEI 0.02): 0.00
BRCA2 mRNA relative expression ([3]; VEI 0.03): 0.34
CDKN2D mRNA relative expression ([3]; VEI 0.03): 0.04
MDM2 mRNA relative expression ([3]; VEI 0.03): 0.00
RHOB mRNA relative expression ([3]; VEI 0.03): 0.03
CDKN2C mRNA relative expression ([3]; VEI 0.04): 0.14
PK3R1 mRNA relative expression ([3]; VEI 0.04): 0.02
PTGS2 mRNA relative expression ([3]; VEI 0.04): 0.02
STATSB mRNA relative expression ([3]; VEI 0.04): 0.45
MAPK1 mRNA relative expression ([3]; VEI 0.05): 0.02
SMAD2 mRNA relative expression ([3]; VEI 0.05): 0.19
CCND1 mRNA relative expression ([3]; VEI 0.06): 0.10
MAP2K2 mRNA relative expression ([3]; VEI 0.06): 0.08
PK3CD mRNA relative expression ([3]; VEI 0.06): 0.06
TGFBR2 mRNA relative expression ([3]; VEI 0.06): 0.00
VEGFA mRNA relative expression ([3]; VEI 0.06): 0.03
VEGFB mRNA relative expression ([3]; VEI 0.06): 0.05
CCNA2 mRNA relative expression ([3]; VEI 0.07): 0.07
CCNE2 mRNA relative expression ([3]; VEI 0.07): 0.07
EZF3 mRNA relative expression ([3]; VEI 0.07): 0.08
SMAD4 mRNA relative expression ([3]; VEI 0.07): 0.08
SOS1 mRNA relative expression ([3]; VEI 0.07): 0.06
TGFB1 mRNA relative expression ([3]; VEI 0.07): 0.05
MAP2K1 mRNA relative expression ([3]; VEI 0.08): 0.03
MMP2 mRNA relative expression ([3]; VEI 0.08): 0.00
VEGFC mRNA relative expression ([3]; VEI 0.08): 0.00
CCNE1 mRNA relative expression ([3]; VEI 0.09): 0.11
CDK2 mRNA relative expression ([3]; VEI 0.09): 0.07
KRAS mRNA relative expression ([3]; VEI 0.09): 0.01
RAC1 mRNA relative expression ([3]; VEI 0.09): 0.00
REL mRNA relative expression ([3]; VEI 0.09): 0.08
STAT2 mRNA relative expression ([3]; VEI 0.09): 0.00
CDKN1B mRNA relative expression ([3]; VEI 0.10): 0.09
CDKN2A mRNA relative expression ([3]; VEI 0.10): 0.16
RELA mRNA relative expression ([3]; VEI 0.10): 0.00
AKT1 mRNA relative expression ([3]; VEI 0.11): 0.10
PK3CB mRNA relative expression ([3]; VEI 0.11): 0.13
FIGF mRNA relative expression ([3]; VEI 0.14): 0.11
TP53 mRNA relative expression ([3]; VEI 0.14): 0.29
EZF4 mRNA relative expression ([3]; VEI 0.16): 0.16
NFKB2 mRNA relative expression ([3]; VEI 0.16): 0.02
EZF1 mRNA relative expression ([3]; VEI 0.17): 0.14
SMAD3 mRNA relative expression ([3]; VEI 0.17): 0.22
STAT1 mRNA relative expression ([3]; VEI 0.18): 0.12
BRAF mRNA relative expression ([3]; VEI 0.22): 0.13
BIRC5 mRNA relative expression ([3]; VEI 0.23): 0.13
JAK1 mRNA relative expression ([3]; VEI 0.23): 0.02
CDK4 mRNA relative expression ([3]; VEI 0.24): 0.17
EGFR mRNA relative expression ([3]; VEI 0.24): 0.16
RAF1 mRNA relative expression ([3]; VEI 0.25): 0.06
CCNB1 mRNA relative expression ([3]; VEI 0.27): 0.33
ERBB2 mRNA relative expression ([3]; VEI 0.27): 0.04
SRC mRNA relative expression ([3]; VEI 0.27): 0.03
GRB2 mRNA relative expression ([3]; VEI 0.31): 0.23
BCL2L1 mRNA relative expression ([3]; VEI 0.35): 0.21
HSP90AA1 mRNA relative expression ([3]; VEI 0.35): 0.00
NFKB1 mRNA relative expression ([3]; VEI 0.35): 0.09
RHOA mRNA relative expression ([3]; VEI 0.37): 0.07
ELK1 mRNA relative expression ([3]; VEI 0.41): 0.09
RELB mRNA relative expression ([3]; VEI 0.42): 0.06
CDC42 mRNA relative expression ([3]; VEI 0.45): 0.00
CDKN1A mRNA relative expression ([3]; VEI 0.49): 0.07
AKT2 mRNA relative expression ([3]; VEI 0.50): 0.46
HBEGF mRNA relative expression ([3]; VEI 0.53): 0.39
NOTCH1 mRNA relative expression ([3]; VEI 1.03): 0.32
STAT6 mRNA relative expression ([3]; VEI 1.38): 0.01
STAT3 mRNA relative expression ([3]; VEI 4.45): 0.07
viability at 100 µg/mL (PANC-1 cell line): 100 ± 5.7%
viability at 200 µg/mL (PANC-1 cell line): 97.4 ± 6.1%
viability at 400 µg/mL (PANC-1 cell line): 83.9 ± 6.1%
viability at 800 µg/mL (PANC-1 cell line): 19.2 ± 1.1%

Reference: US20240180872A1, “METHODS AND COMPOUNDS OF CANNABIDIOL, MELATONIN AND AKBA FOR TREATING PANCREATIC CANCER” (priority 2021, published 2024)
